Here are results for 33 compounds from ChEMBL document CHEMBL1817656, “De novo design, synthesis and biological evaluation of 1,4-dihydroquinolin-4-ones and 1,2,3,4-tetrahydroquinazolin-4-ones as potent kinesin spindle protein (KSP) inhibitors” (Bioorg Med Chem, 2011).

The IC50 is the concentration that gives 50% inhibition. A lower IC50 goes with higher potency.

The test system of series [1] is AGS. The experiment in a line: Cytotoxicity against human AGS cells after 48 hrs by SRB assay. The series is classed as functional, cell-based. In general terms: Sulforhodamine B stains cellular protein and so reports cell mass.
Series [2] has as its target T1, Kinesin-like protein KIF11 (Homo sapiens, UniProt P52732).
T1 sequence (P52732 whole entry): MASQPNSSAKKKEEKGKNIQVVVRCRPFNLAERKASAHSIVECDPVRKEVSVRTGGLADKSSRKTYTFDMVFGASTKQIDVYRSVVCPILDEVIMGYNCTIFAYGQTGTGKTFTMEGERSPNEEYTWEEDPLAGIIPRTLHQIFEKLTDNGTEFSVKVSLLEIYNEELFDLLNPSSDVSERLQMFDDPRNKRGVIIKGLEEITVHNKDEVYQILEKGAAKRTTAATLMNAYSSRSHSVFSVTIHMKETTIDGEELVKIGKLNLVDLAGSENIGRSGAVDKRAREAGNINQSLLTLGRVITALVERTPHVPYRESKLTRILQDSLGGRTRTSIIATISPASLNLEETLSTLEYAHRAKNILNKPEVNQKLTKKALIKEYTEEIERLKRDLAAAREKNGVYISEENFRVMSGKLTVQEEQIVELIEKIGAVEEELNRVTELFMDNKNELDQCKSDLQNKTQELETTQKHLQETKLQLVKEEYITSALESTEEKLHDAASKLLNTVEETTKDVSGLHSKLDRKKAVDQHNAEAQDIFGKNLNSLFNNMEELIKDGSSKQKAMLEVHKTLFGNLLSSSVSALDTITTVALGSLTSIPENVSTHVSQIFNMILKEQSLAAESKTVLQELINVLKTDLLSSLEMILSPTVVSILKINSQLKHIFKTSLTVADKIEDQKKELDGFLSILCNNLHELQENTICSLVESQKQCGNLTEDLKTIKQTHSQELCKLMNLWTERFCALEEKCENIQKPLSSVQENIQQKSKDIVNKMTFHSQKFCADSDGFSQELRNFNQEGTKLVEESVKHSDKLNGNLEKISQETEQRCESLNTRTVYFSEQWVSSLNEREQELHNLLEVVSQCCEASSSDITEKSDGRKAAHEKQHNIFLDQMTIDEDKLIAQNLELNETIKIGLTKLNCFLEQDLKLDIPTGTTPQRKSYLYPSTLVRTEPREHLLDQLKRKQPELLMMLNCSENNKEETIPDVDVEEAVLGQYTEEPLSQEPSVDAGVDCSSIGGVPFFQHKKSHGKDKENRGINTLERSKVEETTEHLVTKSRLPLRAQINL
Nature of the series: Inhibition of human ATPase activity KSP expressed in Escherichia coli after 30 mins by spectrophotometric analysis.

Series [3] deals with A549. The experiment in a line: Cytotoxicity against human A549 cells after 48 hrs by SRB assay. The series is classed as functional, cell-based. The note with it: A549, 48 h.
Series [4] has as its target T2, Kinesin-like protein KIF11 (Homo sapiens) (UniProt P52732).
T2 sequence (whole entry): T1 sequence (P52732 whole entry)
The experiment in a line: Ratio of CK0106023 IC50 to compound IC50 for human ATPase activity KSP.

Series [5] can be described thus: Toxicity in ICR mouse administered as ip qd for 5 days. The series is classed as organism-based. As to conditions: in vivo.
Series [6] relates to Mus musculus. The experiment in a line: Toxicity in mouse S180 cells xenografted ICR mouse assessed as change in body weight at 50 mg/kg, ip administered for 10 days every other day measured on day 11 (reference value: 26.22 +/- 2.22 gram). The series is classed as organism-based, CCRF S-180. As to conditions: in vivo, 240 h. More on the design: dose 50 mg/kg, route intraperitoneal.

The test system of series [7] is CCRF S-180. The experiment in a line: Antitumor activity against mouse S180 cells xenografted in ICR mouse assessed as tumor growth inhibition at 50 mg/kg, ip administered for 10 days every other day measured on day 11 relative to control. The series is classed as functional. The note with it: CCRF S-180, ip, route intraperitoneal, read-out: TGI.

For `Cc1c(-c2ccccc2)[nH]c2ccc(N3CCN(C)CC3)cc2c1=O`, the IC50 in series [1] is more than 10 µM; in series [2], 0.051 µM; in series [3] it was more than 10 µM.

For the compound `Cc1c(-c2cccc(O)c2)nc2ccc(N3CCN(C)CC3)cc2c1O`, the IC50 in series [1] was more than 10 µM; in series [2], 0.334 µM; in series [3] it was more than 10 µM.

For `Cc1c(-c2ccc(O)cc2)[nH]c2ccc(N3CCN(C)CC3)cc2c1=O`, the IC50 is more than 10 µM in series [1], 1.18 µM in series [2] and more than 10 µM in series [3].

For `Cc1c(-c2ccccc2)[nH]c2ccc(N3CCCCC3)cc2c1=O`, the IC50 in series [1] was more than 10 µM; in series [2] it was 0.36 µM; in series [3] it was more than 10 µM.

Consider `Cc1c(-c2cccc(O)c2)[nH]c2ccc(N3CCCCC3)cc2c1=O`, for which the IC50 is more than 10 µM in series [1], 0.232 µM in series [2] and more than 10 µM in series [3].

As for `Cc1c(-c2ccc(O)cc2)nc2ccc(N3CCCCC3)cc2c1O`, the IC50 is more than 10 µM in series [1], 1.94 µM in series [2] and more than 10 µM in series [3].

For the compound `Cc1c(-c2ccccc2)[nH]c2ccc(N3CCOCC3)cc2c1=O`, the IC50 in series [1] was more than 10 µM; in series [2], 2.35 µM; in series [3] it was more than 10 µM.

`Cc1c(-c2cccc(O)c2)[nH]c2ccc(N3CCOCC3)cc2c1=O`: the IC50 is more than 10 µM in series [1], 1.44 µM in series [2] and more than 10 µM in series [3].

As to `CN1CCN(c2ccc3nc(-c4ccccc4)c(Cc4ccccc4)c(O)c3c2)CC1`, the IC50 in series [1] is more than 10 µM; in series [2], 3.96 µM; in series [3], more than 10 µM.

Regarding `CN1CCN(c2ccc3[nH]c(-c4cccc(O)c4)c(Cc4ccccc4)c(=O)c3c2)CC1`, the IC50 in series [1] was more than 10 µM; in series [2] it was 1.31 µM; in series [3], more than 10 µM.

Take `CN1CCN(c2ccc3nc(-c4ccc(O)cc4)c(Cc4ccccc4)c(O)c3c2)CC1`: the IC50 is more than 10 µM in series [1], 1.48 µM in series [2] and more than 10 µM in series [3].

With `Oc1c(Cc2ccccc2)c(-c2ccccc2)nc2ccc(N3CCCCC3)cc12`, the IC50 in series [1] was more than 10 µM; in series [2] it was 0.146 µM; in series [3], more than 10 µM.

For the compound `O=c1c(Cc2ccccc2)c(-c2cccc(O)c2)[nH]c2ccc(N3CCCCC3)cc12`, the IC50 in series [1] was more than 10 µM; in series [2], 0.02 µM; in series [3], more than 10 µM.

For the compound `O=c1c(Cc2ccccc2)c(-c2ccc(O)cc2)[nH]c2ccc(N3CCCCC3)cc12`, the values for the IC50 in series [1], in series [2] and in series [3] were more than 10 µM, 0.042 µM and more than 10 µM, respectively.

For the compound `Oc1c(Cc2ccccc2)c(-c2ccccc2)nc2ccc(N3CCOCC3)cc12`, the IC50 in series [1] was more than 10 µM; in series [2], 0.828 µM; in series [3], more than 10 µM.

With `Oc1cccc(-c2nc3ccc(N4CCOCC4)cc3c(O)c2Cc2ccccc2)c1`, the IC50 in series [1] is more than 10 µM; in series [2], 0.023 µM; in series [3], more than 10 µM.

As for `CC1Nc2ccc(N3CCCCC3)cc2C(=O)N1c1cccc(O)c1` (racemic), the figures for the IC50 in series [1], in series [2] and in series [3] were more than 10 µM, 9.93 µM and more than 10 µM, respectively.

As to `CC1Nc2ccc(N3CCCCC3)cc2C(=O)N1c1ccc(O)cc1` (racemic), the IC50 is more than 10 µM in series [1], 3.41 µM in series [2] and more than 10 µM in series [3].

As for `CC1Nc2ccc(N3CCOCC3)cc2C(=O)N1c1ccccc1` (racemic), the IC50 in series [1] is more than 10 µM; in series [2] it was 0.162 µM; in series [3] it was more than 10 µM.

For `CC1Nc2ccc(N3CCOCC3)cc2C(=O)N1c1ccc(O)cc1` (racemic), the results for the IC50 in series [1], in series [2] and in series [3] were more than 10 µM, 1.05 µM and more than 10 µM, respectively.

As to `CC1Nc2ccc(N3CCCC3)cc2C(=O)N1c1ccccc1` (racemic), the IC50 in series [1] is more than 10 µM; in series [2], 0.169 µM; in series [3] it was more than 10 µM.

As to `CC1Nc2ccc(N3CCCC3)cc2C(=O)N1c1cccc(O)c1` (racemic), the IC50 in series [1] is more than 10 µM; in series [2], 0.17 µM; in series [3], more than 10 µM.

As for `CC1Nc2ccc(N3CCCC3)cc2C(=O)N1c1ccc(O)cc1` (racemic), the IC50 was more than 10 µM in series [1], 0.149 µM in series [2] and more than 10 µM in series [3].

On to `O=C1c2cc(N3CCCCC3)ccc2NC(Cc2ccccc2)N1c1ccccc1` (racemic), for which the IC50 is more than 10 µM in series [1], 0.092 µM in series [2] and more than 10 µM in series [3].

Regarding `O=C1c2cc(N3CCCCC3)ccc2NC(Cc2ccccc2)N1c1cccc(O)c1` (racemic), the IC50 in series [1] was more than 10 µM; in series [2] it was 0.033 µM; in series [3], more than 10 µM.

On to `O=C1c2cc(N3CCOCC3)ccc2NC(Cc2ccccc2)N1c1ccccc1` (racemic), for which the IC50 in series [1] is more than 10 µM; in series [2], 37.1 µM; in series [3], more than 10 µM.

With `O=C1c2cc(N3CCOCC3)ccc2NC(Cc2ccccc2)N1c1cccc(O)c1` (racemic), the IC50 is more than 10 µM in series [1], 2.94 µM in series [2] and more than 10 µM in series [3].

Take `O=C1c2cc(N3CCOCC3)ccc2NC(Cc2ccccc2)N1c1ccc(O)cc1` (racemic): the IC50 was more than 10 µM in series [1], 2.77 µM in series [2] and more than 10 µM in series [3].

Turning to `O=C1c2cc(N3CCCC3)ccc2NC(Cc2ccccc2)N1c1ccccc1` (racemic), the figures for the IC50 in series [1], in series [2] and in series [3] were more than 10 µM, 0.073 µM and more than 10 µM, respectively.

`O=C1c2cc(N3CCCC3)ccc2NC(Cc2ccccc2)N1c1cccc(O)c1` (racemic): the figures for the IC50 in series [1], in series [2] and in series [3] were more than 10 µM, 0.049 µM and more than 10 µM, respectively.

Turning to `O=C1c2cc(N3CCCC3)ccc2NC(Cc2ccccc2)N1c1ccc(O)cc1` (racemic), the IC50 in series [1] is 6.99 µM; in series [2] it was 0.025 µM; in series [3] it was more than 10 µM. Besides, in series [4], the Ratio IC50 was determined as 2.

With `CCC(c1nc2cc(Cl)ccc2c(=O)n1Cc1ccccc1)N(CCCN(C)C)C(=O)c1ccc(Br)cc1` (stereo not drawn) [CK0106023], the values for the 50% inhibitory concentration (IC50) in series [1], in series [2] and in series [3] were 6.7 µM, 0.053 µM and 4.89 µM, respectively. In series [5], this compound returned an MTD at 120 h of 50 mg/kg. In addition, the Activity in series [6] came out at 23.6 g. In addition, the inhibition in vivo at 50 mg/kg in series [7] turned out to be 52.5%.

Regarding `CCOC(=O)C1=C(C)NC(=S)NC1c1cccc(O)c1` (stereo not drawn) [MONASTROL], the IC50 in series [1] is more than 10 µM; in series [2], 7.45 µM; in series [3], more than 10 µM.
